What all share (assay): biochemical
What all share (parameters): in vitro kinase selectivity panel, protein and lipid kinases, single concentration, ATP at Km
What all share (details): ATP at Km

One experiment has as its target T1, CHK2(h) (Homo sapiens, UniProt O96017).
T1 construct: gene CHEK2
The gist of the method:
(§1)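 Single-point screen against a protein and lipid kinase panel: inhibitor at 1 μM. ATP concentration for every kinase equivalent to its Km.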

A further experiment deals with T2, CK1δ(h) (Homo sapiens, UniProt P48730).
T2 construct: gene CSNK1D
In outline: as §1

Another experiment addresses DGKZ (Homo sapiens, UniProt Q13574). In outline: as §1
The target in the next experiment is EGFR(L858R)(h) (Homo sapiens, UniProt P00533, L858R). The gist of the method:
as §1

For a further experiment, the target named is T3, FAK(h) (Homo sapiens, UniProt Q05397).
T3 construct: gene PTK2
The gist of the method:
as §1

For another experiment, the target named is FGFR2(h) (Homo sapiens, UniProt P21802). The gist of the method: as §1
A further experiment deals with FGFR3(h) (Homo sapiens, UniProt P22607). In outline: as §1
A further experiment addresses Fer(h) (Homo sapiens, UniProt P16591). In outline: as §1
In a further experiment the target is T4, IGF-1R(h) (Homo sapiens, UniProt P08069).
T4 construct: gene IGF1R
In outline:
as §1

The next experiment addresses T5, IR(h) (Homo sapiens, UniProt P06213).
T5 construct: gene INSR
The gist of the method:
as §1

The target of a further experiment is T6, PDGFRβ(h) (Homo sapiens, UniProt P09619).
T6 construct: gene PDGFRB
In outline: as §1

For the next experiment, the target named is T7, PIK3CB / p85 (h) (Homo sapiens, UniProt P42338).
T7 construct: p110beta/p85
The gist of the method: as §1

The target in another experiment is T8, PIK4B (Homo sapiens, UniProt Q9UBF8).
T8 construct: gene PI4KB
The gist of the method:
as §1

The target in another experiment is T9, PKCβI(h) (Homo sapiens, UniProt P05771).
T9 construct: gene PRKCB; isoform beta I
The gist of the method:
as §1

A further experiment concerns the target T10, Pim-1(h) (Homo sapiens, UniProt P11309).
T10 construct: gene PIM1
In outline: as §1

The next experiment deals with T11, ZIPK(h) (Homo sapiens, UniProt O43293).
T11 construct: gene DAPK3
The gist of the method:
as §1

For another experiment, the target named is T12, c-RAF(h) (Homo sapiens, UniProt P04049).
T12 construct: gene RAF1
The gist of the method: as §1

This is an account of results in article PMC5391474, “Investigation of the Role of Protein Kinase D in Human Rhinovirus Replication” (Journal of Virology, 2017).

T6 sequence (P09619 whole entry): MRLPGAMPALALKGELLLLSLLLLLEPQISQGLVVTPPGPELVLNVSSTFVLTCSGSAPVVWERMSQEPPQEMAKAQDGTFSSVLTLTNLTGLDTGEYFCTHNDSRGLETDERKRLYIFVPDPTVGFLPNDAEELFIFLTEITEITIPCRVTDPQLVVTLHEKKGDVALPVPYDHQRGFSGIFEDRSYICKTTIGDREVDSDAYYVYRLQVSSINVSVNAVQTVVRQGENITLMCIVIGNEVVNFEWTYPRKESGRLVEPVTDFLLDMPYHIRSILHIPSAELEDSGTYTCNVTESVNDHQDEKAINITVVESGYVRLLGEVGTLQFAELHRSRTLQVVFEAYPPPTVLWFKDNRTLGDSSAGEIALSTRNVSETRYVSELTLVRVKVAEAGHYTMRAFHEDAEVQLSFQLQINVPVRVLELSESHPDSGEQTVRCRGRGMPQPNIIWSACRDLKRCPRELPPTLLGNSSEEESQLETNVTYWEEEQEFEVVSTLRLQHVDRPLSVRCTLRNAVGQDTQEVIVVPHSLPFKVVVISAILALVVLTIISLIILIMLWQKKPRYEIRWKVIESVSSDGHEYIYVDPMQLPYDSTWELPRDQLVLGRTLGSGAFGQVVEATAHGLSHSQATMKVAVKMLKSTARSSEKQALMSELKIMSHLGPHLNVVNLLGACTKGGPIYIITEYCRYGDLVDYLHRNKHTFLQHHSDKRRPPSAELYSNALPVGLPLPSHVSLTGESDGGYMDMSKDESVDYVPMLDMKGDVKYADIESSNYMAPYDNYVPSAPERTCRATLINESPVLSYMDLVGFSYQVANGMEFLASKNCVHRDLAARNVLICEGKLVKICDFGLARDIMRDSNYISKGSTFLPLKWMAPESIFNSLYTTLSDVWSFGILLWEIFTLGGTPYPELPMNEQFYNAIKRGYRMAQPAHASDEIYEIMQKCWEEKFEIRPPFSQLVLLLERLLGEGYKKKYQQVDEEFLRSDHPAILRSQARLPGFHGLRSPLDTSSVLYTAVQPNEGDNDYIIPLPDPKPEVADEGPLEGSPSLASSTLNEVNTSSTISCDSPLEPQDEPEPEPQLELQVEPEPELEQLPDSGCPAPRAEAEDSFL
T11 sequence (O43293 whole entry): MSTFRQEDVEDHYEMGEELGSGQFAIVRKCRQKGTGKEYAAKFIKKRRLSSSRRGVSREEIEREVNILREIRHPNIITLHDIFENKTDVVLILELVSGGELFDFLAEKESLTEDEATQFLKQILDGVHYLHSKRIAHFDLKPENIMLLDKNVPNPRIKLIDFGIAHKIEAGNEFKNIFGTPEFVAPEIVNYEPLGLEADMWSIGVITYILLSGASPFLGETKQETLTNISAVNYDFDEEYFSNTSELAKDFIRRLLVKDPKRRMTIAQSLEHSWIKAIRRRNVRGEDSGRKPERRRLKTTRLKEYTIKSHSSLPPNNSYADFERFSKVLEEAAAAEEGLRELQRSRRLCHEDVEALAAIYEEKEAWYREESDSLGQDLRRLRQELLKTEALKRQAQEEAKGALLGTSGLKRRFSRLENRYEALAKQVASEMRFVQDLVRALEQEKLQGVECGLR
T7 sequence (P42338 whole entry): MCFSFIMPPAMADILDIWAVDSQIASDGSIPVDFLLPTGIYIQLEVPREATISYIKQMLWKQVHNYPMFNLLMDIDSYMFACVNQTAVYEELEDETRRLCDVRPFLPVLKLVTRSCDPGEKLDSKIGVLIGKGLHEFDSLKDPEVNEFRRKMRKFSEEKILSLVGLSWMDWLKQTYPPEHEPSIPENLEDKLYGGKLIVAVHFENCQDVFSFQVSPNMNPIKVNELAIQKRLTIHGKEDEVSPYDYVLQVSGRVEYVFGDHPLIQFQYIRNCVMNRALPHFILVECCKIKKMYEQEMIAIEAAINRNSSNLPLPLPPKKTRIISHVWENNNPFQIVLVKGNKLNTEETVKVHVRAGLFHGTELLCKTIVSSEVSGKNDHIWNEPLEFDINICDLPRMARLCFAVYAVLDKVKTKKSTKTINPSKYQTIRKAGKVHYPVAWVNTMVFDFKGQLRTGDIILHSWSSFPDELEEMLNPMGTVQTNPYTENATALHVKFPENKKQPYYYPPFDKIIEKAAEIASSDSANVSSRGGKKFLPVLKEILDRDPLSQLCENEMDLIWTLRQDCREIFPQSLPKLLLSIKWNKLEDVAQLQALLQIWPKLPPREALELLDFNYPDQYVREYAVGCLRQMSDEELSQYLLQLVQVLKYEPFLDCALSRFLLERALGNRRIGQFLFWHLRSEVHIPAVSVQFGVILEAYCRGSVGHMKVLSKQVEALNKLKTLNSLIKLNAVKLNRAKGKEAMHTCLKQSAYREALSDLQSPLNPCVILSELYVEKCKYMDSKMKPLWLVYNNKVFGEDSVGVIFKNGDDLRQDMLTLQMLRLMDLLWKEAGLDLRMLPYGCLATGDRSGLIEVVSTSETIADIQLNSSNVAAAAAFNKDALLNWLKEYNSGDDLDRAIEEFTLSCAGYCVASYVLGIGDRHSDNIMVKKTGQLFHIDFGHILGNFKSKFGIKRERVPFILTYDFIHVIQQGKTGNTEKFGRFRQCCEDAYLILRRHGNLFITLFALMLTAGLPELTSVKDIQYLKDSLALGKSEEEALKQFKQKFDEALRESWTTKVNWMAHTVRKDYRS
T7 sequence (P27986 whole entry partner): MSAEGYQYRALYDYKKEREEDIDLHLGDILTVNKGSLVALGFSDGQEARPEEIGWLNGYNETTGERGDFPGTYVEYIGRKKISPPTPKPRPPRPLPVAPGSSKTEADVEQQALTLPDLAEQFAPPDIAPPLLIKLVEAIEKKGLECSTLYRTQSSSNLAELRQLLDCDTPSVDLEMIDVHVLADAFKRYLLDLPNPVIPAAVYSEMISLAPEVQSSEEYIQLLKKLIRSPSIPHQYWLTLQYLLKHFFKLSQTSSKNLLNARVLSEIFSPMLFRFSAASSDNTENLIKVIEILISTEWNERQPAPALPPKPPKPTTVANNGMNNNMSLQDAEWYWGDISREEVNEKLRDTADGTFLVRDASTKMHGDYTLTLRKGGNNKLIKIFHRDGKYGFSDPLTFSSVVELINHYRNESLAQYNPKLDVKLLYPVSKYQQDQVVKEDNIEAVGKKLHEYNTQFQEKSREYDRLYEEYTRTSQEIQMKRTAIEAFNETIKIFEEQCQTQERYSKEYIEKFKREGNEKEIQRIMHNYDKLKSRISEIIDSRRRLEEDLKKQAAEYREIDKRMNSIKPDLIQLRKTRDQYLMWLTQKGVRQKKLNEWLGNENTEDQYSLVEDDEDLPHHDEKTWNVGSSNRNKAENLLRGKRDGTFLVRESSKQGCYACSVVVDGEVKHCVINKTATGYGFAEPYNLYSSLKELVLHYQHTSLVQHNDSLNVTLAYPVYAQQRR
Sequence of EGFR(L858R)(h) (P00533 whole entry L858R): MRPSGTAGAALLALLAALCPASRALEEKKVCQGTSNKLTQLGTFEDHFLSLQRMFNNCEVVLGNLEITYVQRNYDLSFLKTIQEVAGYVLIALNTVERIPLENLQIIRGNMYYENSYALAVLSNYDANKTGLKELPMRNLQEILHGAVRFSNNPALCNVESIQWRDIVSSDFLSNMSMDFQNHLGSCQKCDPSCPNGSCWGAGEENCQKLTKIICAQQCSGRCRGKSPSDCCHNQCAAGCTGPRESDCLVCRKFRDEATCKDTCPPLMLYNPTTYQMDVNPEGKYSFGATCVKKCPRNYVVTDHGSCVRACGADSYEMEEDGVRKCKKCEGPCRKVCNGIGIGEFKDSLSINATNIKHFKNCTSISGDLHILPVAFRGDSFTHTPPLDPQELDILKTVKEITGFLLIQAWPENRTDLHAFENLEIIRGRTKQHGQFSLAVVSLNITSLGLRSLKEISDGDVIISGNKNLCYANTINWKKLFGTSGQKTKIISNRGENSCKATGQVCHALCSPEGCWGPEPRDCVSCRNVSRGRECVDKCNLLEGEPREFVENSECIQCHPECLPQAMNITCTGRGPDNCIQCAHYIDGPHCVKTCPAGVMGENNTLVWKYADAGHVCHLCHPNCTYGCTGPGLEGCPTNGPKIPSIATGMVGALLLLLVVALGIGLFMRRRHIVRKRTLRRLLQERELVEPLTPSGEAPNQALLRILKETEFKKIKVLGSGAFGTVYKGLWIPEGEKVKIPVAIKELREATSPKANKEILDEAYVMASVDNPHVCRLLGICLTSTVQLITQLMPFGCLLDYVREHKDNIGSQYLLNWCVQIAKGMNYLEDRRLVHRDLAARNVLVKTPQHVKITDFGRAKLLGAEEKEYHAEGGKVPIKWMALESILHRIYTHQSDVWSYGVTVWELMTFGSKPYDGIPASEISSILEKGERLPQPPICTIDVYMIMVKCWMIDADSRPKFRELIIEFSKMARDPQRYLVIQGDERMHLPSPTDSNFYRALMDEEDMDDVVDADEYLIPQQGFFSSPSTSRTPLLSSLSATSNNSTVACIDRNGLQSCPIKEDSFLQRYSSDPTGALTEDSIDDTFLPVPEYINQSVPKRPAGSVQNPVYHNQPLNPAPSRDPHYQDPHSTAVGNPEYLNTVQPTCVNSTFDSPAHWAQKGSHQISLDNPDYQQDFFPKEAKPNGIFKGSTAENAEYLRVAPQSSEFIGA
T2 sequence (P48730 whole entry): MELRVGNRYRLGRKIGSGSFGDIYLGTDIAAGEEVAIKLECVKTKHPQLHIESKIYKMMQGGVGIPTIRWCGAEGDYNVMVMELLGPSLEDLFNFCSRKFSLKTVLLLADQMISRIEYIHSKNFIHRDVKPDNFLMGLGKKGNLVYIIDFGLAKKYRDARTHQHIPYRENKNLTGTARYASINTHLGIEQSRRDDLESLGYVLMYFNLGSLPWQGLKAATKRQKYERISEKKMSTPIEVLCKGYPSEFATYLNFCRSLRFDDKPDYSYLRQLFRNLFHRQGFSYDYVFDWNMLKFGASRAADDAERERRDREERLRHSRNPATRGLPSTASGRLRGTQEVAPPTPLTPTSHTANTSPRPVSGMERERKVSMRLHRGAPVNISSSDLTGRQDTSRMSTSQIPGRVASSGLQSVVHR

A word on the inhibition: it is the change of the read-out against control, counted positive when it falls. For `CC[C@@H](N)CNc1ccnc(-c2cc(-c3cnn(C)c3)ccc2O)n1` [CRT0066101], the inhibition at 1 µM was 26% against CHK2(h); 13% against CK1δ(h); -1% against DGKZ; -1% against EGFR(L858R)(h); -11% on FAK(h); 5% against FGFR2(h). Further, the inhibition at 1 µM on FGFR3(h) was -2%; against Fer(h), -25%; at IGF-1R(h), -14%; against IR(h), -22%; against PDGFRβ(h), -1%; on PIK3CB / p85 (h), 0%. The inhibition at 1 µM against PIK4B is 33%; against PKCβI(h), 11%; at Pim-1(h), 98%; against ZIPK(h), 7%; at c-RAF(h) it was 4%.
